Reference: patent publication US20250057801A1, “Methods for Treating Traumatic Brain Injury” (The Government of the United States, as Represented by the …, priority 2023, published 2025)

Columns and labels:
[1] = in vivo; cited from earlier work
[2] = cited from earlier work
[3] = system: penetrating brain injury (PTBI); assay: Mitochondrial bioenergetics (Seahorse XFe96 Flux Analyzer) in injury core mitochondria after PTBI; format: in vivo, male Sprague-Dawley rats; conditions: compared to VEH
Method: (§1) Three experimental groups (N=4-8 male Sprague-Dawley rats/group) were studied. The first group was a sham group in which there was no penetrating brain injury and no treatment with resveratrol triacetate (RES). The second group was subject to a penetrating brain injury (via probe insertion and balloon inflation) and treated with dimethyl sulfoxide, DMSO (vehicle, VEH) and dosed at 15 minutes and 6 hours after injury and then once daily. The third group was subject to a penetrating brain injury and treated with RES and dosed at 15 minutes and six hours after injury and then once daily.
(§2) After 60 minutes of the last dosing at either 24 hours or 3 days post-injury, fresh viable mitochondria were isolated from the injury core of rats' brain. Homogenate fractions were collected for a glutathione assay.
(§3) Mitochondrial bioenergetics parameters were measured using a high-throughput procedure of the Seahorse XFe96 Flux Analyzer. The glutathione content was measured using a 5,5′-dithiobis-(2-nitrobenzoic acid) (DTNB) cycling method/assay. Antioxidant and oxidative stress were measured by a Western blot (WB) analysis.
(§4) Graphs and statistical analysis were performed using GraphPad Prism program. Data are presented as mean±SEM (standard error of means). ANOVA with Fisher post-hoc test was used to evaluate significant difference at * p<0.05 vs. Sham; $ p<0.05 vs. Vehicle (N=4-8 animals/group).

[4] = system: penetrating brain injury (PTBI); assay: Total glutathione content (DTNB cycling assay) in brain homogenate after PTBI; format: in vivo, male Sprague-Dawley rats; conditions: 24 hours post-PTBI
Method: as §1, §2, §3, §4

[5] = system: penetrating brain injury (PTBI); assay: Western blot of antioxidant, oxidative stress, membrane integrity and apoptosis markers after PTBI; format: in vivo, male Sprague-Dawley rats
Method: as §1, §2, §3, §4

Row | SMILES | half-life [1] | water solubility [2] | bioenergetics in injured core mitochondria, as measured by ATP synthesis ([3]; 24 hours post-PTBI) | bioenergetics in injured core mitochondria ([3]; 3 days post-PTBI) | total glutathione (GSH) content [4] | Cytochrome C (CYT C) expression compared to VEH ([5]; 24 hours post-PTBI) | catalase (CAT) expression compared to VEH ([5]; 24 hours post-PTBI) | glyceraldehyde 3-phosphate dehydrogenase (GAPDH) expression compared to VEH ([5]; 24 hours post-PTBI) | lipid peroxidation marker 4-hydroxynonenal (4-HNE) adduct formation compared to VEH ([5]; 24 hours post-PTBI) | superoxide dismutase (SOD) expression compared to VEH ([5]; 24 hours post-PTBI) | thioredoxin (TRX) expression compared to VEH ([5]; 24 hours post-PTBI) | CAT expression compared to VEH ([5]; 3 days post-PTBI) | CYT C expression compared to VEH ([5]; 3 days post-PTBI) | SOD expression compared to VEH ([5]; 3 days post-PTBI) | anti-apoptotic protein Bcl-2 expression compared to VEH ([5]; 3 days post-PTBI) | voltage-dependent anion channels (VDAC) expression compared to VEH ([5]; 3 days post-PTBI)
1 | Oc1ccc(C=Cc2cc(O)cc(O)c2)cc1 [Resveratrol] | 8 to 14 min | low water solubility |  |  |  |  |  |  |  |  |  |  |  |  |  | 
2 | CC(=O)Oc1ccc(/C=C/c2cc(OC(C)=O)cc(OC(C)=O)c2)cc1 [RES, 3′,5′,4′-tri-o-acetyl resveratrol] |  |  | trend of improved bioenergetics | non-significant trend of bioenergetics improvement | reversed PTBI-induced downregulation of total glutathione (GSH) content | +105% | −62% | −16.5% | non-significant improvement | +42% | +38% | −30% | +64% | +90% | +104% | +47%
